Reference: patent publication US20160011176A1, “METHOD AND DEVICE FOR EXAMINING MYOCARDIAL TOXICITY AND EVALUATING CARDIOMYOCYTES” (NATIONAL UNIVERSITY CORPORATION TOKYO MEDICAL AND DENTAL …, priority 2012, published 2016)

Key:
cardiomyocyte network [1] = assay: Excitation conduction transmitting through a linearly arranged cardiomyocyte network (transmission time, its fluctuation, FPD, STVFPD); type: cell-based
Description: FIGS. 65a, b schematically show an example of a method of such measurement of excitation conduction transmitting through a cardiomyocyte network. […] Arranged on a bottom surface of each cell housing on a substrate surface are respective electrodes (about 8 μm in diameter) for measurements of cellular potential, and from each of the electrodes, respective lead lines are extended. A single cardiomyocyte is received in each of the cell housings.
Specifically, in order to measure the temporal variation in the excitation conduction transmitting through the cellular population, an ignition peak of depolarization excited by an initial excitation conduction of each cell or each local point is measured, and at the same time, an ignition peak of an initial depolarization based on excitation conduction in another local area of adjacent another cell or adjacent another cellular population is measured; then a variation of a transmission rate or a transmission elapsed time is measured with respect to the distance between the two measurement points; and then the level of fluctuation of the transmission is quantitatively measured. Generally, the initial peak based on the excitation conduction is deemed to be a sodium spike. Thus, in view of this, the measurements of the initial ignition peak based on the excitation conduction are equivalent to the measurements of the sodium spikes. For example, where a drug with a big risk of proarrhlythmia is used, an increase in the fluctuation is utilized for the measurements. Here, the following are required: (1) a network of a plurality of cardiomyocytes is formed; (2) there is a means for accurately measuring the transmission delay time by measuring respective cellular potential wave form at two or more spatially different points within the network, and simultaneously accurately measuring the time of depolarization ignition spikes excited by the initial excitation conduction of the wave form; (3) in the case where a forced pulsation is provided, three or more electrodes are used to measure time required for transmission of the pulsation between respective electrodes at other measurement electrodes using the electrodes at both ends as stimulation electrodes, enabling measurements of temporal fluctuation of transmission rate or transmission time between the electrodes. As for the fluctuation, the STV as shown in Equation 3 in FIG. 24(c), for example, can be used for quantification. Here, Delayn and Delayn+1 (FIG. 65) can substitute for Vn and Vn+1. For transmission, when velocity is used, respective velocities can substitute for Delayn and Delayn+1. […] Thus, the transmission time will be measured as an extremely shorter transmission time than a transmission delay measured normally between adjacent electrodes. […]

cardiomyocyte network [2] = assay: Simultaneous measurement of extracellular potential (FP) and contractile force (optical imaging) in a cardiomyocyte network; type: cell-based
Description: FIG. 43 is a schematic diagram showing an example of a system configuration of the present invention to simultaneously measure the mechanical properties and electrical properties of cardiomyocytes. The present system includes (1) a cellular network chip that can be used for culturing a cell population, includes a plurality of micro-electrodes disposed on a substrate and can be used for acquiring cellular potential data of a small area of the population; (2) a chip mounter for mounting the chip and joining electrically with cell-stimulating and/or cellular potential measuring system; (3) an environmental control vessel which can be used to control the environment such as temperature, humidity, oxygen concentration and carbon dioxide concentration of the cell population being cultured; (4) a micro multi-electrode potential measurement system that can give stimulation to a specific cell of a cardiomyocyte population, and allows simultaneous continuous measurements of cellular potentials of various small areas in the cell population; (5) one or more position-coordinate probe microparticles configured to measure changes in shape of myocardial cells and allow easy identification of cardiomyocytes using a plastic, polymer, glass or metal microparticles such as polystyrene microparticles, glass microparticles or gold microparticles of sizes from at minimum about 0.1, 0.2 μm, 0.3 μm, 0.4 μm, 0.5 μm, 0.6 μm, 0.7 μm, or preferably about 0.8 μm, more preferably about 0.9 μm, or most preferably about 1 μm to at most about 500 μm, 400 μm, 300 μm, preferably about 200 μm, more preferably about 100 μm or most preferably about 50 μm, wherein the particles are disposed in the cell population by mixing them on the surface of the cardiomyocyte population in the cell network chip or in the cell population and culturing them; (6) an optical image capturing system for optically measuring the microparticles, wherein the system includes a light source, an optical microscope and an image-capturing camera to capture the images of the microparticles; and (7) a computer system for image analysis, cellular potential analysis, stimulus control and/or integrated data acquisition, wherein the system is capable of measurements of cellular potential and analysis of waveforms of the potential, measurements of cell displacements by image analysis and feedback stimulation based on the analysis results. In the measurements using the device system, as for the stimulus to cause depolarization of the myocardial cells, the stimulus can be provided by selecting mainly from three means, i.e., (A) measurements using conduction of autonomous pulsation of the cardiomyocyte population, (B) measurements of conduction by providing a forced electrical stimulation from outside to a specific cell in the cardiomyocyte population and (C) measurements of conduction by providing a feed-back stimulus at a specific timing to meet the relationship of the delay time and the value of the cellular potential based on the cell voltage measured data to the specific cells in the cardiomyocyte population.
FIG. 44 is an example of a data acquisition monitor screen showing an example of data obtained from an example of a system configuration of the present invention to simultaneously measure the mechanical properties and the electrical properties of cardiomyocytes. In a setting of this example, a large number of polystyrene microparticles are placed on the surface of the cardiomyocyte population, a probe-particle displacement-observation window for five of the polystyrene microparticles selected as probes is set, and the center of gravity of the window moves with the movement of the microparticles in the window, thereby displacement of the particular probe microparticles can be measured continuously as a change in vector time in the directions of the X-axis and Y-axis. […]

Row | Structure (SMILES) | fluctuation of FPD (STVFPD) (cardiomyocyte network [1]; FIG. 66e) | FPD (as indicator of toxicity) (cardiomyocyte network [1]; FIG. 66d) | fluctuation of time required for transmission (cardiomyocyte network [1]; concentration over 1 μM) | transmission rate between adjacent electrodes (relative to no drug) (cardiomyocyte network [1]; concentration over 1 μM) | angle fluctuation against a decrease in contractile force (cardiomyocyte network [2]; 10 nM) | angle fluctuation (contraction direction) (cardiomyocyte network [2]; 100 nM) | contractile forces (time variation) (cardiomyocyte network [2]; 100 nM) | electrical firing of excitatory conduction of cells (cardiomyocyte network [2]; 100 nM) | electrophysiological excitation (cardiomyocyte network [2]; 1000 nM) | mechanical contraction (cardiomyocyte network [2]; 1000 nM)
1 | CC(C)(C)c1ccc(C(O)CCCN2CCC(C(O)(c3ccccc3)c3ccccc3)CC2)cc1 (stereo not shown) [terfenadine] | barely recognizable | is not seen | increases | suddenly decreased | – | – | – | – | – | –
2 | COc1ccc(CCN(C)CCCC(C#N)(c2ccc(OC)c(OC)c2)C(C)C)cc1OC (stereo not shown) [verapamil] | – | – | – | – | barely increases | rapid fluctuation of contractile direction in the angular direction | disappear rapidly | is maintained | does not occur | does not occur
